This is an account of results in patent publication US12109245B2, “Extract of aerial parts of Maca rich in polyphenols and composition comprising same” (LABORATOIRES EXPANSCIENCE, priority 2010, dated 2024).

What all share (type): cell-based
Assay [1] concerns Human keratinocytes (NCTC-2544 line). Kind of assay: PMA-induced IL8 and PGE2 production by keratinocytes (ELISA). As to the method: The cells were then treated with 0.1 μg/ml PMA (Phorbol Myristate Acetate) for 24 hours, also in the presence of MC or the references. Following the treatment, the quantities of IL8 (interleukin8) and PGE2 (prostaglandin E2) secreted were measured by means of ELISA in the culture supernatants. The results were analysed statistically using a Student's t test.

Assay [2] relates to Jurkat cell lines. In words: UV-induced lipid peroxidation (C11-Fluor probe, flow cytometry). As to conditions: 100 μM BHT. On the procedure:
Jurkat cell lines were pre-incubated for 45 minutes in the presence of 0.005% and 0.01% (w/v of active substance) Maca leaf extract (MC) or 100 μM BHT (reference) and in the presence of the C11-Fluor fluorescent probe, specific for lipid peroxidation.
The cells were then irradiated with UVA+B and incubated for 30 minutes in the presence of MC or BHT.
At the end of incubation, the quantity of lipid peroxides was evaluated by means of a flow cytometry analysis of the fluorescence intensity (inversely proportional to oxidation).
The results were analysed were analysed statistically using a Student's t test.

Assay [3] relates to Human neutrophils. Kind of assay: Release of elastase by neutrophils. As to conditions: 10 μg/ml Boswellic acid. As to the method:
Human neutrophils were treated for 15 minutes with 0.005 and 0.01% (w/v of active substance) Maca leaf extract (MC) or with 10 μg/ml Boswellic acid (reference) and stimulated with 1 μM calcium ionophore A23187, for 10 minutes. The release of elastase was evaluated by measuring the elastase activity with a spectrophotometric method. The results were analysed statistically using a Student's t test.

For assay [4], the system named is Normal human adipocytes. In words: Evaluation of lipogenesis in adipocytes ([14C]-acetate incorporation). Conditions: 20 μM cerulenin. On the procedure: Normal human adipocytes were incubated for 1 hour in the presence of 0.005% and 0.01% (w/v of active substance) Maca leaf extract or reference (20 μM cerulenin). After incubation, the radioactive marker [^14C]-acetate was added and the samples were incubated overnight.
At the end of incubation, the lipids were extracted and the incorporated radioactivity (corresponding to lipogenesis) was measured by means of liquid scintillation.
The results were analysed statistically using a Student's t test.

Assay [5] has as its system Normal human dermal fibroblasts. Kind of assay: Gene expression of dermal matrix markers in fibroblasts (real-time RT-PCR). Conditions: 5 ng/ml TGFβ1, 24 hours. On the procedure: Normal human dermal fibroblasts were treated for 24 hours with 0.002% and 0.005% (w/v of active substance) Maca leaf extract (MC) or with 5 ng/ml TGFβ1 (reference).
At the end of incubation, the gene expression of various dermal matrix markers was analysed by means of real-time RT-PCR.
The results were analysed statistically by means of a one-factor ANOVA followed by a Dunnett test.

As for `C[C@@H]1C[C@H]2[C@@H]3CCC4=CC(=O)C=C[C@]4(C)[C@@]3(F)[C@@H](O)C[C@]2(C)[C@@]1(O)C(=O)CO` [dexamethasone], in assay [1] (10−7M dexamethasone, 0.1 μg/ml PMA), the “IL8 Inhibition” value is reported as 85%. Besides, the IL8 production in assay [1] (10−7M dexamethasone, 0.1 μg/ml PMA 24 hours (PMA alone 50.1 ± 1.8)) came out at 7.4 ± 0.08 ng/ml %.

In the case of `COc1ccc2c(c1)c(CC(=O)O)c(C)n2C(=O)c1ccc(Cl)cc1` [indometacin], the “PGE2 Inhibition” value in assay [1] (10−6M indometacin, 0.1 μg/ml PMA) came to 100%. Further, the PGE2 production in assay [1] (10−6M indometacin, 0.1 μg/ml PMA 24 hours (PMA alone 138.4 ± 10.6)) is on record as 0.039 ± 0.0 ng/ml %.

On to `Cc1cc(C(C)(C)C)c(O)c(C(C)(C)C)c1` [BHT], for which the “Protection (%) against UV-induced lipid peroxidation” value in assay [2] is given as 49%. In assay [2] (UVA+B irradiated cells = 100), the “Lipid peroxidases (% irradiated reference)” value was 64%.

Take `C[C@H]1[C@H](C)CC[C@]2(C)CC[C@]3(C)C(=CC[C@@H]4[C@@]5(C)CC[C@@H](O)[C@](C)(C(=O)O)[C@@H]5CC[C@]43C)[C@H]12` [Boswellic acid]: in assay [3] (15 minutes, 1 μM calcium ionophore A23187 = 100), the “Elastase (net release; %)” value is 50.90 ± 7.49%. This compound yielded an inhibition at 10 µg/mL in assay [3] (Homo sapiens, Neutrophil) of 49%.

In the case of `C/C=C/C/C=C/CCC(=O)[C@H]1O[C@H]1C(N)=O` [Cerulenin, cerulenin], the “Acetate incorporation (cpm)” value in assay [4] (control cells 32895 ± 1358) is on record as 14934 ± 671 cpm. The compound further yielded an inhibition at 20 µM in assay [4] (Homo sapiens, Adipocyte) of 55%.

With “TGFβ1: 5 ng/ml TGFβ1 (reference) in the dermal fibroblast test”, in assay [5], the “Collagen I gene expression, change vs control” value is “+40%”; the “Dermatopontin gene expression, change vs control” value is “+34%”; the “Elastin gene expression, change vs control” value is on record as “+57%”; the “Fibronectin gene expression, change vs control” value is on record as “+141%”. Besides, the “MMP1 gene expression, change vs control” value in assay [5] was −78%. For the same compound, in assay [5] (control = 1.00), the “Collagen I gene expression (Relative Quantity)” value amounted to 1.40, the “Dermatopontin gene expression (Relative Quantity)” value is 1.34, the “Elastin gene expression (Relative Quantity)” value is listed as 1.57 and the “Fibronectin gene expression (Relative Quantity)” value is 2.41. In assay [5] (control = 1.00), the “MMP1 gene expression (Relative Quantity)” value is listed as 0.22.
